In ChEMBL document CHEMBL1156481, “Enzymatic therapeutic index of acyclovir. Viral versus human polymerase gamma specificity” (J Biol Chem, 2007):

Tests used:
[1] = test system: Human alphaherpesvirus 1; assay: Activity of wild type HSV1 DNA polymerase UL42 assessed as rate of excision of compound from correctly paired DNA primer during fast phase of excision in presence of 100 uM dNTPs
[2] = test system: Human alphaherpesvirus 1; assay: Activity of wild type HSV1 DNA polymerase UL42 assessed as amplitude of excision of compound from correctly paired DNA primer during fast phase of excision
[3] = test system: Human alphaherpesvirus 1; assay: Activity of wild type HSV1 DNA polymerase UL42 assessed as amplitude of excision of compound from 3'-frayed DNA primer with 8 mispaired bases at 3' end during fast phase of excision in presence of 100 uM dNTPs
[4] = species: Homo sapiens; assay: Activity of human wild type DNA polymerase gamma assessed as amplitude of excision of compound from 3'-frayed DNA primer with 8 mispaired bases at 3' end during fast phase of excision in presence of 100 uM dNTPs
[5] = test system: Human alphaherpesvirus 1; assay: Activity of wild type HSV1 DNA polymerase UL42 assessed as amplitude of excision of compound from 3'-frayed DNA primer with 8 mispaired bases at 3' end during fast phase of excision
[6] = test system: Human alphaherpesvirus 1; assay: Activity of wild type HSV1 DNA polymerase UL42 assessed as rate of excision of compound from correctly paired DNA primer during fast phase of excision
[7] = species: Homo sapiens; assay: Activity of human wild type DNA polymerase gamma assessed as amplitude of excision of compound from correctly paired DNA primer during fast phase of excision in presence of 100 uM dNTPs
[8] = species: Homo sapiens; assay: Activity of human wild type DNA polymerase gamma assessed as rate of excision of compound from 3'-frayed DNA primer with 8 mispaired bases at 3' end during fast phase of excision in presence of 100 uM dNTPs
[9] = species: Homo sapiens; assay: Activity of human wild type DNA polymerase gamma assessed as amplitude of excision of compound from 3'-frayed DNA primer with 8 mispaired bases at 3' end during fast phase of excision
[10] = test system: Human alphaherpesvirus 1; assay: Activity of wild type HSV1 DNA […] UL42 assessed as amplitude of excision of compound from correctly paired DNA primer during fast phase of excision in presence of 100 uM dNTPs
[11] = test system: Human alphaherpesvirus 1; assay: Activity of wild type HSV1 DNA polymerase UL42 assessed as rate of excision of compound from 3'-frayed DNA primer with 8 mispaired bases at 3' end during fast phase of excision
[12] = species: Homo sapiens; assay: Activity of human wild-type DNA polymerase gamma assessed as rate of excision of compound from correctly paired DNA primer during fast phase of excision in presence of 100 uM dNTPs
[13] = test system: Human alphaherpesvirus 1; assay: Activity of wild type HSV1 DNA polymerase UL42 assessed as rate of excision of compound from 3'-frayed DNA primer with 8 mispaired bases at 3' end during fast phase of excision in presence of 100 uM dNTPs
[14] = species: Homo sapiens; assay: Activity of human wild type DNA polymerase gamma assessed as amplitude of excision of compound from correctly paired DNA primer during fast phase of excision
[15] = species: Homo sapiens; assay: Activity of human wild type DNA polymerase gamma assessed as rate of excision of compound from 3'-frayed DNA primer with 8 mispaired bases at 3' end during fast phase of excision
[16] = species: Homo sapiens; assay: Activity of human wild type DNA polymerase gamma assessed as rate of excision of compound from correctly paired DNA primer during fast phase of excision
[17] = test system: Human alphaherpesvirus 1; assay: Ratio of polymerization constant K to Kd for exonuclase deficient HSV1 DNA polymerase UL42 D368A mutant
[18] = test system: T1, DNA polymerase subunit gamma-1 (Homo sapiens), P54098 [E200A]; assay: Polymerizing activity of exonuclase deficient human recombinant DNA polymerase gamma E200A mutant assessed as rate of nucleotide incorporation by pre-steady state single nucleotide incorporation assay
T1 sequence (whole entry): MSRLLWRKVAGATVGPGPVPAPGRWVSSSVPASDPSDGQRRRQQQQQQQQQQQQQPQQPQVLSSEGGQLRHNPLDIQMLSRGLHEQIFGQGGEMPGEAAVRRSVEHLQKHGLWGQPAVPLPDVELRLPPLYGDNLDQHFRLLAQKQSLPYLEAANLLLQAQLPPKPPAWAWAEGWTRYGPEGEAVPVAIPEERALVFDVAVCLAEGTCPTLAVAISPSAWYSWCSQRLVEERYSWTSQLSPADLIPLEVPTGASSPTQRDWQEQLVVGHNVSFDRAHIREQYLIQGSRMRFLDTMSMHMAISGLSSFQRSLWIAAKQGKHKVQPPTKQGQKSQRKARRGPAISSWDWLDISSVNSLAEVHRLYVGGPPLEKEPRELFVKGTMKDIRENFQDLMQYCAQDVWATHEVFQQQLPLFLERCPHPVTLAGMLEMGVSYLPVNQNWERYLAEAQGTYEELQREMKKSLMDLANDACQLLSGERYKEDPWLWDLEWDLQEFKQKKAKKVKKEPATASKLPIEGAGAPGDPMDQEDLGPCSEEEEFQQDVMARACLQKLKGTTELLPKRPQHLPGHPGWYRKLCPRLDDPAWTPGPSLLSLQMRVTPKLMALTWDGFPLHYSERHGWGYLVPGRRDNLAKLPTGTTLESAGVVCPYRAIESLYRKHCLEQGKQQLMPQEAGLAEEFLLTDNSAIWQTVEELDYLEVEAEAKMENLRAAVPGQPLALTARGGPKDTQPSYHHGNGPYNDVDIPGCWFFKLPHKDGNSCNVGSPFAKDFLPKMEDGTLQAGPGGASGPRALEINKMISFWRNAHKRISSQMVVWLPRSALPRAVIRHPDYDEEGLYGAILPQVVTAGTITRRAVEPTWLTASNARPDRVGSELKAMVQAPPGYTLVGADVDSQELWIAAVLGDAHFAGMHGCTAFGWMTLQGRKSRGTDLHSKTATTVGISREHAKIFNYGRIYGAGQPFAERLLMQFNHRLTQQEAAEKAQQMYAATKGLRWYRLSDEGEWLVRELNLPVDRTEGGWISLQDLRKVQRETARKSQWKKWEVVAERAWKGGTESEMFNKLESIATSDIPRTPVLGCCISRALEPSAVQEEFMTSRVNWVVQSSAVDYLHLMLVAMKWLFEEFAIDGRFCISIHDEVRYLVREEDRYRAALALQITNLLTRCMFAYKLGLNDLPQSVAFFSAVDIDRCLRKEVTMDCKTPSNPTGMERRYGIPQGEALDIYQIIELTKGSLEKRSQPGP

[19] = test system: Human alphaherpesvirus 1; assay: Polymerizing activity of exonuclase deficient HSV1 DNA polymerase UL42 D368A mutant assessed as rate of nucleotide incorporation by pre-steady state single turnover assay
[20] = Binding affinity to exonuclase deficient HSV1 DNA polymerase UL42 D368A mutant; set-up: species or system Human alphaherpesvirus 1
[21] = test system: T1, DNA polymerase subunit gamma-1 (Homo sapiens), P54098 [E200A]; assay: Ratio of polymerization constant K to Kd for human recombinant DNA polymerase gamma E200A mutant
[22] = molecular target: DNA polymerase subunit gamma-1 (Homo sapiens, UniProt P54098, E200A); assay: Binding affinity to exonuclase deficient human recombinant DNA polymerase gamma E200A mutant
[23] = species: Homo sapiens; assay: Activity of human wild type DNA polymerase gamma assessed as amplitude of excision of compound from correctly paired DNA primer during slow phase of excision
[24] = species: Homo sapiens; assay: Activity of human wild-type DNA polymerase gamma assessed as rate of excision of compound from 3'-frayed DNA primer with 8 mispaired bases at 3' end during slow phase of excision
[25] = test system: Human alphaherpesvirus 1; assay: Activity of wild type HSV1 DNA polymerase UL42 assessed as amplitude of excision of compound from correctly paired DNA primer during slow phase of excision
[26] = test system: Human alphaherpesvirus 1; assay: Activity of wild type HSV1 DNA polymerase UL42 assessed as rate of excision of compound from 3'-frayed DNA primer with 8 mispaired bases at 3' end during slow phase of excision
[27] = test system: Human alphaherpesvirus 1; assay: Activity of wild type HSV1 DNA polymerase UL42 assessed as rate of excision of compound from correctly paired DNA primer during slow phase of excision
[28] = test system: Human alphaherpesvirus 1; assay: Activity of wild type HSV1 DNA polymerase UL42 assessed as amplitude of excision of compound from 3'-frayed DNA primer with 8 mispaired bases at 3' end during slow phase of excision
[29] = species: Homo sapiens; assay: Activity of human wild type DNA polymerase gamma assessed as rate of excision of compound from correctly paired DNA primer during slow phase of excision
[30] = species: Homo sapiens; assay: Activity of human wild-type DNA polymerase gamma assessed as amplitude of excision of compound from 3'-frayed DNA primer with 8 mispaired bases at 3' end during slow phase of excision

Nc1nc(=O)c2ncn(COCCOP(=O)(O)O)c2[nH]1
Activity [1]: 2 ×10⁻⁴ /s
Activity [2]: 86 nM
Activity [3]: 90 nM
Activity [4]: 90 nM
Activity [5]: 90 nM
Activity [6]: 5.1 ×10⁻⁴ /s
Activity [7]: 91 nM
Activity [8]: 3 ×10⁻⁴ /s
Activity [9]: 94 nM
Activity [10]: 85 nM
Activity [11]: > 0.3 s⁻¹
Activity [12]: 9.2 ×10⁻⁵ /s
Activity [13]: > 0.3 s⁻¹
Activity [14]: 97 nM
Activity [15]: 1.3 ×10⁻³ /s
Activity [16]: 2.1 ×10⁻³ /s

Nc1nc2c(ncn2COCCOP(=O)(O)OP(=O)(O)OP(=O)(O)O)c(=O)[nH]1 [ACYCLOVIR TRIPHOSPHATE]
Ratio [17]: 1.7 µM⁻¹ s⁻¹
K [18]: 1.03 s⁻¹
K [19]: 10.1 s⁻¹
Kd [20]: 6 µM
Ratio [21]: 0.17 µM⁻¹ s⁻¹
Kd [22]: 6 µM

Cc1cn([C@H]2C[C@H](O)[C@@H](COP(=O)(O)OP(=O)(O)OP(=O)(O)O)O2)c(=O)[nH]c1=O
Ratio [17]: 45 µM⁻¹ s⁻¹
K [19]: 137 s⁻¹

Nc1nc2c(ncn2[C@H]2C[C@H](O)[C@@H](COP(=O)(O)OP(=O)(O)OP(=O)(O)O)O2)c(=O)[nH]1 [DEOXYGUANOSINE TRIPHOSPHATE]
Ratio [17]: 80 µM⁻¹ s⁻¹
K [18]: 37 s⁻¹
K [19]: 640 s⁻¹
Kd [20]: 0.8 µM
Ratio [21]: 45 µM⁻¹ s⁻¹
Kd [22]: 0.8 µM

Nc1nc(O)c2ncn([C@H]3C[C@H](O)[C@@H](COP(=O)(O)O)O3)c2n1
Activity [2]: 11 nM
Activity [23]: 74 nM
Activity [24]: 0.27 s⁻¹
Activity [25]: 77 nM
Activity [5]: 65 nM
Activity [6]: 12 s⁻¹
Activity [9]: 16 nM
Activity [11]: 125 s⁻¹
Activity [26]: 1.3 s⁻¹
Activity [27]: 0.25 s⁻¹
Activity [14]: 16 nM
Activity [15]: 2.6 s⁻¹
Activity [28]: 24 nM
Activity [29]: 0.02 s⁻¹
Activity [16]: 0.45 s⁻¹
Activity [30]: 27 nM
